ChEMBL document CHEMBL1201862, “PubChem BioAssay data set” (2004)
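48-hour exposure; five concentrations; linearly interpolated endpoints. GI50: concentration for 50% inhibition of growth.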 Calls of active or inactive are those of the source. Cut-off read from the data, not from the text of the source: active = GI50 up to about 1.1 µM and inactive = higher.

Columns and labels:
Assay in all cases: NCI-60 cell line screen, 48 h
SK-MEL-28 = tested on: SK-MEL-28
RXF 393 = tested on: RXF 393
SK-OV-3 = tested on: SK-OV-3
Malme-3M = tested on: Malme-3M
OVCAR-4 = tested on: OVCAR-4
OVCAR-5 = tested on: OVCAR-5
OVCAR-3 = tested on: OVCAR-3
DMS-273 = tested on: DMS-273
M14 = tested on: M14
MOLT-4 = tested on: MOLT-4
KM-20L2 = tested on: KM-20L2
U-251 = tested on: U-251
SN12C = tested on: SN12C
NCI-H460 = tested on: NCI-H460
SNB-78 = tested on: SNB-78
HOP-92 = tested on: HOP-92
HCT-15 = tested on: HCT-15
HL-60 = tested on: HL-60
IGROV-1 = tested on: IGROV-1

## CC(C)(C)OC(=O)NC1CCC[C@H]1O (stereo partly drawn)
SK-MEL-28
  GI50: > 100 µM (inactive)
RXF 393
  GI50: > 100 µM (inactive)
SK-OV-3
  GI50: > 100 µM (inactive)
Malme-3M
  GI50: 0.265 µM (active)
OVCAR-4
  GI50: > 100 µM (inactive)
OVCAR-5
  GI50: > 100 µM (inactive)
OVCAR-3
  GI50: > 100 µM (inactive)
DMS-273
  GI50: > 100 µM (inactive)
M14
  GI50: > 100 µM (inactive)
MOLT-4
  GI50: > 100 µM (inactive)
KM-20L2
  GI50: > 100 µM (inactive)
U-251
  GI50: > 100 µM (inactive)
SN12C
  GI50: > 100 µM (inactive)
NCI-H460
  GI50: > 100 µM (inactive)
SNB-78
  GI50: > 100 µM (inactive)
HOP-92
  GI50: > 100 µM (inactive)

## Cc1cc(N(CCC#N)CCC#N)ccc1/C=C(\N=[N+]=[N-])C(=O)NC(=O)COc1ccccc1
SK-MEL-28
  GI50: > 100 µM (inactive)
RXF 393
  GI50: > 46.3 µM (inactive)
SK-OV-3
  GI50: > 100 µM (inactive)
Malme-3M
  GI50: > 100 µM (inactive)
OVCAR-4
  GI50: > 100 µM (inactive)
OVCAR-5
  GI50: > 100 µM (inactive)
HCT-15
  GI50: > 100 µM
OVCAR-3
  GI50: > 100 µM (inactive)
DMS-273
  GI50: > 100 µM (inactive)
M14
  GI50: > 100 µM (inactive)
MOLT-4
  GI50: > 100 µM (inactive)
KM-20L2
  GI50: > 100 µM (inactive)
U-251
  GI50: > 67.8 µM (inactive)
HL-60
  GI50: > 100 µM (inactive)
SN12C
  GI50: > 100 µM (inactive)
NCI-H460
  GI50: > 100 µM (inactive)
IGROV-1
  GI50: > 100 µM (inactive)
SNB-78
  GI50: > 61.7 µM (inactive)
HOP-92
  GI50: > 100 µM (inactive)

## O=C(c1ccc(Cl)cc1)c1ccc(OCCSCCCCCCCCCCSCCOc2ccc(C(=O)c3ccc(Cl)cc3)cc2)cc1
SK-MEL-28
  GI50: > 100 µM (inactive)
RXF 393
  GI50: > 100 µM (inactive)
SK-OV-3
  GI50: > 100 µM (inactive)
Malme-3M
  GI50: > 100 µM (inactive)
OVCAR-5
  GI50: > 100 µM (inactive)
HCT-15
  GI50: > 100 µM
OVCAR-3
  GI50: > 100 µM (inactive)
DMS-273
  GI50: > 100 µM (inactive)
MOLT-4
  GI50: > 100 µM (inactive)
KM-20L2
  GI50: > 100 µM (inactive)
U-251
  GI50: > 100 µM (inactive)
HL-60
  GI50: > 100 µM (inactive)
SN12C
  GI50: > 100 µM (inactive)
NCI-H460
  GI50: > 100 µM (inactive)
IGROV-1
  GI50: > 100 µM (inactive)
SNB-78
  GI50: > 100 µM (inactive)
HOP-92
  GI50: > 100 µM (inactive)

## Cc1ccc(NC(=O)C(=O)C(C(=O)c2ccc3ccccc3c2)C2OC(=O)c3ccccc32)c(C)c1 (stereo not drawn)
SK-MEL-28
  GI50: 5.69 µM (inactive)
RXF 393
  GI50: 3.24 µM (inactive)
SK-OV-3
  GI50: 12.5 µM (inactive)
Malme-3M
  GI50: 8.99 µM (inactive)
OVCAR-4
  GI50: 6.76 µM (inactive)
OVCAR-5
  GI50: 16.3 µM (inactive)
HCT-15
  GI50: 14.3 µM
OVCAR-3
  GI50: 9.38 µM (inactive)
DMS-273
  GI50: > 10 µM (inactive)
M14
  GI50: 14.7 µM (inactive)
MOLT-4
  GI50: 3.31 µM (inactive)
KM-20L2
  GI50: 24.4 µM (inactive)
U-251
  GI50: 3.64 µM (inactive)
SN12C
  GI50: 15.5 µM (inactive)
NCI-H460
  GI50: 5.57 µM (inactive)
IGROV-1
  GI50: 10.9 µM (inactive)
SNB-78
  GI50: 8.73 µM (inactive)
HOP-92
  GI50: 7.03 µM (inactive)

## COc1cccc(/C=N\NC(=O)C(C)SC(C)C(=O)N/N=C/c2cccc(OC)c2)c1 (stereo not drawn)
SK-MEL-28
  GI50: 36.6 µM (inactive)
RXF 393
  GI50: 11.1 µM (inactive)
SK-OV-3
  GI50: 18.1 µM (inactive)
Malme-3M
  GI50: 42 µM (inactive)
OVCAR-4
  GI50: 16.8 µM (inactive)
OVCAR-5
  GI50: 53.8 µM (inactive)
HCT-15
  GI50: > 100 µM
OVCAR-3
  GI50: 20.7 µM (inactive)
DMS-273
  GI50: 33 µM (inactive)
M14
  GI50: 72.9 µM (inactive)
MOLT-4
  GI50: 39.4 µM (inactive)
KM-20L2
  GI50: 47 µM (inactive)
U-251
  GI50: 18 µM (inactive)
HL-60
  GI50: > 62.1 µM (inactive)
SN12C
  GI50: 19.6 µM (inactive)
NCI-H460
  GI50: 14.9 µM (inactive)
IGROV-1
  GI50: 20.3 µM (inactive)
SNB-78
  GI50: 36 µM (inactive)
HOP-92
  GI50: 20.8 µM (inactive)

## CCOC(=O)c1ccc(N[C@@H]2c3cc4c(cc3C(C3=CC(=O)C(=O)C(OC)=C3)[C@H]3C(=O)OCC32)OCO4)cc1 (stereo partly drawn)
SK-MEL-28
  GI50: 7.6 µM (inactive)
RXF 393
  GI50: 2.84 µM (inactive)
SK-OV-3
  GI50: 2.26 µM (inactive)
Malme-3M
  GI50: 2.53 µM (inactive)
OVCAR-4
  GI50: 24.2 µM (inactive)
OVCAR-5
  GI50: 4.88 µM (inactive)
HCT-15
  GI50: 2.21 µM
OVCAR-3
  GI50: 8.47 µM (inactive)
DMS-273
  GI50: 1.12 µM (inactive)
M14
  GI50: 2.51 µM (inactive)
MOLT-4
  GI50: 0.215 µM (active)
KM-20L2
  GI50: 6.37 µM (inactive)
U-251
  GI50: 0.995 µM (active)
HL-60
  GI50: 0.802 µM (active)
SN12C
  GI50: 2 µM (inactive)
NCI-H460
  GI50: 0.173 µM (active)
IGROV-1
  GI50: 5.78 µM (inactive)
SNB-78
  GI50: 8.69 µM (inactive)
HOP-92
  GI50: 2.04 µM (inactive)

## CCOc1ccc2c(c1)[n+]([O-])c(-c1ccc([N+](=O)[O-])cc1)c(N)[n+]2[O-]
SK-MEL-28
  GI50: > 100 µM (inactive)
RXF 393
  GI50: > 100 µM (inactive)
SK-OV-3
  GI50: > 100 µM (inactive)
Malme-3M
  GI50: > 100 µM (inactive)
OVCAR-4
  GI50: > 100 µM (inactive)
OVCAR-5
  GI50: > 100 µM (inactive)
OVCAR-3
  GI50: > 100 µM (inactive)
DMS-273
  GI50: > 100 µM (inactive)
M14
  GI50: > 100 µM (inactive)
MOLT-4
  GI50: 52.2 µM (inactive)
KM-20L2
  GI50: > 100 µM (inactive)
U-251
  GI50: > 100 µM (inactive)
HL-60
  GI50: 96.8 µM (inactive)
SN12C
  GI50: > 100 µM (inactive)
NCI-H460
  GI50: > 100 µM (inactive)
IGROV-1
  GI50: > 100 µM (inactive)
SNB-78
  GI50: > 100 µM (inactive)
HOP-92
  GI50: > 100 µM (inactive)

## CCOC(=O)C(=O)Nc1c(C)cccc1C(C)(C)C
SK-MEL-28
  GI50: > 100 µM (inactive)
RXF 393
  GI50: > 100 µM (inactive)
SK-OV-3
  GI50: > 100 µM (inactive)
Malme-3M
  GI50: > 100 µM (inactive)
OVCAR-4
  GI50: 73.3 µM (inactive)
OVCAR-5
  GI50: > 100 µM (inactive)
HCT-15
  GI50: > 100 µM
OVCAR-3
  GI50: > 100 µM (inactive)
DMS-273
  GI50: > 100 µM (inactive)
M14
  GI50: > 100 µM (inactive)
MOLT-4
  GI50: > 100 µM (inactive)
KM-20L2
  GI50: > 100 µM (inactive)
U-251
  GI50: > 100 µM (inactive)
SN12C
  GI50: > 100 µM (inactive)
NCI-H460
  GI50: > 100 µM (inactive)
IGROV-1
  GI50: > 100 µM (inactive)
SNB-78
  GI50: > 100 µM (inactive)
HOP-92
  GI50: > 100 µM (inactive)

## COc1cc(Oc2c(O)c(C)c(OC)c(C(C)=O)c2O)c(C(C)=O)c(O)c1C
SK-MEL-28
  GI50: 50.6 µM (inactive)
RXF 393
  GI50: 61.9 µM (inactive)
SK-OV-3
  GI50: > 100 µM (inactive)
Malme-3M
  GI50: 42.8 µM (inactive)
OVCAR-4
  GI50: 45.2 µM (inactive)
OVCAR-5
  GI50: 98.2 µM (inactive)
HCT-15
  GI50: 47.6 µM
OVCAR-3
  GI50: 43 µM (inactive)
DMS-273
  GI50: 37.8 µM (inactive)
M14
  GI50: 64.3 µM (inactive)
KM-20L2
  GI50: 63.8 µM (inactive)
U-251
  GI50: 44.2 µM (inactive)
SN12C
  GI50: 34.9 µM (inactive)
NCI-H460
  GI50: 46.9 µM (inactive)
IGROV-1
  GI50: 67.3 µM (inactive)
SNB-78
  GI50: > 100 µM (inactive)
HOP-92
  GI50: 44.6 µM (inactive)

## O=Cc1c(O)c(C(=O)Nc2ccc3[nH]c(=O)[nH]c3c2)cc2ccccc12
SK-MEL-28
  GI50: > 100 µM (inactive)
RXF 393
  GI50: > 100 µM (inactive)
SK-OV-3
  GI50: > 100 µM (inactive)
Malme-3M
  GI50: > 100 µM (inactive)
OVCAR-4
  GI50: > 100 µM (inactive)
OVCAR-5
  GI50: > 100 µM (inactive)
HCT-15
  GI50: > 100 µM
OVCAR-3
  GI50: > 100 µM (inactive)
DMS-273
  GI50: > 100 µM (inactive)
M14
  GI50: > 100 µM (inactive)
MOLT-4
  GI50: > 100 µM (inactive)
KM-20L2
  GI50: > 100 µM (inactive)
U-251
  GI50: > 100 µM (inactive)
HL-60
  GI50: > 100 µM (inactive)
SN12C
  GI50: > 100 µM (inactive)
NCI-H460
  GI50: > 100 µM (inactive)
IGROV-1
  GI50: > 100 µM (inactive)
SNB-78
  GI50: > 100 µM (inactive)
HOP-92
  GI50: > 100 µM (inactive)

## CNC(=O)OCc1cc2ccncc2c2c1[nH]c1ccccc12
SK-MEL-28
  GI50: > 100 µM (inactive)
RXF 393
  GI50: 2.55 µM (inactive)
Malme-3M
  GI50: > 100 µM (inactive)
OVCAR-4
  GI50: > 100 µM (inactive)
OVCAR-5
  GI50: > 77.6 µM (inactive)
HCT-15
  GI50: > 23.8 µM
OVCAR-3
  GI50: > 100 µM (inactive)
DMS-273
  GI50: > 100 µM (inactive)
M14
  GI50: > 100 µM (inactive)
MOLT-4
  GI50: 4.05 µM (inactive)
KM-20L2
  GI50: > 100 µM (inactive)
U-251
  GI50: > 39.7 µM (inactive)
HL-60
  GI50: 19.1 µM (inactive)
SN12C
  GI50: > 100 µM (inactive)
NCI-H460
  GI50: > 20.7 µM (inactive)
IGROV-1
  GI50: > 26.9 µM (inactive)
SNB-78
  GI50: > 72.6 µM (inactive)
HOP-92
  GI50: > 100 µM (inactive)
